In the METLIN SMRT retention time set (Domingo-Almenara et al. 2019):

Assay: gradient 5% acetonitrile 3 min, to 50% in 2 min, to 85% in 15 min, held 3 min, 100 µL/min
Conditions: column: Zorbax Extend-C18 2.1 x 50 mm; eluents: water / acetonitrile, 0.1% formic acid
Outline: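 Pure standards were analyzed in mixtures of ~100 molecules using HPLC coupled to a quadrupole time-of-flight mass spectrometer, in both positive and negative ionization mode. Separation used a Zorbax Extend-C18 column (2.1 × 50 mm, 1.8 μm) at 100 μL/min, with water and acetonitrile each containing 0.1% formic acid. Dead and dwell volumes were 40 μL and 900 μL, and data were collected over 3 months. Retention time was read from computationally picked adduct peaks, each inspected manually.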

RP-LC retention time [s]	Structure (SMILES)
639	CC1CCCCN1CCCNC(=O)CCCn1c(=O)c2cccn2c2ccc(F)cc21 (stereo not given)
647	Cc1cccc(CNC(=O)c2ccc3ncnc(N4CCCC4)c3c2)c1
623	O=C(NCc1ccc(Br)cc1)C1CCCN(C(=O)c2cc(-c3ccncc3)n[nH]2)C1 (stereo not given)
734	O=C(Nc1ccc2c(c1)OCCO2)C1CCN(C(=O)c2ccccc2F)CC1
676	CCNc1cc(N2CCCC(CCC(=O)N3CCC(C)CC3)C2)ncn1 (stereo not given)
672	Cc1nn(-c2ccc(N3CCOCC3)nn2)c(C)c1CCC(=O)NCCC(C)C
842	CCOCCCNC(=O)C1CCCN(S(=O)(=O)c2ccc3c(ccn3CC)c2)C1 (stereo not given)
730	Cc1noc(Cc2nnc(-c3cccc(F)c3)o2)n1
779	COc1ccc(OC)c(CNC(=O)Cc2csc3nc(-c4ccccc4)cn23)c1
728	CC(C)n1cnc(S(=O)(=O)N2CCC(C(=O)Nc3ccc(F)cc3F)CC2)c1
738	COc1ccccc1C(=O)N1CCC2(C1)C(=O)N(C)c1ccccc12 (stereo not given)
902	CN1C(=O)Cc2cc(S(=O)(=O)CCC(=O)N3CCN(c4ccccn4)CC3)ccc21
1180	Fc1cccc(-c2nnc3sc(-c4ccc5ccccc5n4)nn23)c1
1060	CC(C)CCSc1nnc2c(S(=O)(=O)N3CCN(c4ccc(F)cc4)CC3)cccn12
598	COc1cccc(NC(=O)c2cn3c(n2)CCCC3)c1
811	Cc1cccc(NC(=O)N2C[C@@H](F)C[C@H]2C(=O)N2CCc3ccccc3C2)c1C
693	O=C(Nc1ccc(Br)cc1F)c1ccc(-n2ccnc2)nn1

RP-LC retention time [s]	Structure (SMILES)
722	CCOc1ccc(C(C)C)cc1S(=O)(=O)Nc1cccnc1
820	O=c1n(CCOc2ccccc2)nc2c(S(=O)(=O)N3CCc4ccccc4C3)cccn12
872	Cc1ccsc1-c1nnc(CC(=O)N2CCN(c3ccccc3)CC2)o1
761	Cc1cc2nn(CC(=O)Nc3ccc(F)cc3Cl)c(=O)n2c(-c2ccccc2)n1
818	C=CCn1c(C)c(CC(=O)NC(C)CC)c(=O)n2nc(-c3ccccc3)nc12 (stereo not given)
952	CCCc1noc(-c2ccnc(-n3cnc(C(=O)NC4CCCC4)c3)c2)n1
853	O=C(NCc1ccccc1F)c1ccc(NC(=O)C2CCC2)cc1N1CCOCC1
1280	Cc1ccc(C)c(N2CCN(Cc3nc(-c4ccc(N5CCCC(C)C5)nc4)no3)CC2)c1 (stereo not given)
1180	CCOc1ccc(Cn2c(=O)c3sccc3n(Cc3nc(-c4cccc(C)c4)no3)c2=O)cc1
649	Fc1ccc2[nH]c(CN3CCN(c4ccccn4)CC3)cc2c1
638	COc1ccc(-n2nc(C(=O)N3CCCCC3c3cccnc3)c(=O)n(C)c2=O)cc1 (stereo not given)
1150	O=C(c1nc2ccccc2s1)N1CCC(COCc2ccccc2)CC1
1050	COc1ccc(C)cc1NC(=O)Cn1c(=O)cc(-c2nc(C3CC3)no2)c2ccccc21
689	CCOC(=O)N1CCN(C(=O)CCNc2c(-c3cccc(F)c3)nc3cnccn23)CC1
568	CCNc1cc(N2CCC(CCC(=O)NCc3ccc(OC)cc3)CC2)ncn1
900	CCNC(=O)N1CCCC(c2cccc(C(=O)NCc3cccc(C(F)(F)F)c3)c2)C1 (stereo not given)
847	COc1cccc(N2CCN(c3ccc(S(=O)(=O)C(C)C)nn3)CC2)c1

More lines, now with the values behind:

Structure (SMILES)	RP-LC retention time [s]
Cn1cnc2c(C(=O)N3CCc4ccccc4C3)nn(-c3ccccc3)c2c1=O	831
Fc1ccc(-c2csc(Nc3ccccn3)n2)cc1	896
CCN1c2ccc(C(=O)Nc3ccc4c(c3)OCCO4)cc2-c2ccccc2S1(=O)=O	990
CCCNC(=O)N1CCC2(CCCCO2)CC1	602
CCc1ccc(N2CC(c3noc(-c4ccc5c(c4)OCO5)n3)CC2=O)cc1 (stereo not given)	1060
Cc1cc(N2CCC(NC(=O)Nc3ccc4c(c3)OCCO4)C2=O)ccc1F (stereo not given)	774
COc1cccc(-n2nnc(C(=O)O)c2C(F)(F)F)c1	752
CCn1cc(-c2nc(C(=O)Nc3cccc(OC)c3)cs2)c2cccnc21	1060
CS(=O)(=O)N[C@H]1C[C@@H]2C[C@H]1CN2C(=O)c1ccc(C(F)(F)F)cc1	571
COc1ccc(C(C)NC(=O)c2cn3cc(C)ccc3n2)cc1OC (stereo not given)	630
CC(C)Cn1c(-c2ccccc2)nc2ccccc21	675
Cc1noc([C@@H]2CN(C(=O)c3cscn3)C[C@H]2C(N)=O)n1	556
Cc1ccc(N(C)S(=O)(=O)c2ccc3c(c2)CCCC(=O)N3)cc1C	854
COC[C@@H]1CN(C(=O)c2ccc(C#N)cc2)C[C@H]1C(N)=O	571
CSc1ncc2ncn(C3OC(CO)C(O)C3O)c2n1 (stereo not given)	623
CCCCCn1c(=O)c2ccccc2n(Cc2nc(-c3ccc(OC)c(OC)c3)no2)c1=O	1120
Cc1cc(Cl)ccc1NS(=O)(=O)c1ccc2c(c1)NC(=O)C(C(=O)N1CCCC1)S2 (stereo not given)	827
Cn1nc(-c2nnc(-c3ccccc3Cl)o2)c2c1CCN(C(=O)c1ccco1)C2	784
CCCCNC(=O)C1CCCN(C(=O)Nc2ccc(S(=O)(=O)N(CC)CC)s2)C1 (stereo not given)	849

Structure (SMILES)	RP-LC retention time [s]
O=C(c1nc(Cn2nc(-c3ccc(F)cc3)ccc2=O)no1)N1CCC2(CC1)OCCO2	783
Cc1cc(C)n(-c2ccc(=O)n(CCNS(=O)(=O)c3ccccc3C(F)(F)F)n2)n1	763
CCOc1ccc(-c2nc(C3CC(=O)N(c4ccc(OC)c(OC)c4)C3)no2)cc1 (stereo not given)	912
c1cc(CSc2cc(N3CCCC3)ncn2)ccn1	536
CCn1c(C)c(C(C)=O)c2cc(OCC(O)CNC(C)c3ccccc3)ccc21 (stereo not given)	590
O=C(N1CCC(NS(=O)(=O)Cc2ccccc2F)CC1)N1C[C@H]2C[C@H](C1)[C@H]1CCCC(=O)N1C2	689
Cc1nc2c(c(Nc3cc(C(=O)O)ccc3C)n1)CCC2	584
Cc1sc2ccn(CC(C)C)c(=O)c2c1C(=O)N1CCCCCC1	897
COc1ccc(C2Cn3nnc(-c4nc(-c5ccccc5Br)no4)c3CO2)cc1 (stereo not given)	1150
COc1ccc(OC)c(NC(=O)NCC(c2cccnc2)c2cn(C)c3ccccc23)c1 (stereo not given)	713
COCc1nc(-c2ccc(OC3CN(Cc4cccs4)C3)cc2)no1	661
CCn1cc(-c2ccc(Cl)cc2)cc1C(=O)NCc1ccncc1	720
Cc1cc(N2CCN(C)CC2)nc(N2CCN(S(=O)(=O)c3ccc(Br)cc3)CC2)n1	580
Cc1ccc(-n2nc3c(=O)n(CCCC(=O)NCCCN4CCCC4=O)nc(C)c3c2C)cc1	683
Cc1ccc(CNC(=O)c2cn3c(n2)CCCC3)cc1	604
Cc1ccc2c(c1)C1CC(C)(O2)N(c2ccc(C(=O)O)cc2)C(=O)N1 (stereo not given)	709
CC(=O)Nc1cccc(NC(=O)C2CC(=O)N(c3n[nH]c4ccccc34)C2)c1 (stereo not given)	625
CCCCOc1nc2c(c(=O)n(C)c(=O)n2C)n1C	874
Cc1cc(C2CCCN2C(=O)c2ccc(C)s2)no1 (stereo not given)	770

Structure (SMILES)	RP-LC retention time [s]
Cc1ccc(CNC(=O)C2(C)CCCN(C(=O)NC(C)C)C2)cc1 (stereo not given)	766
Cc1cc(C2CCCN2C(=O)Nc2cccc(C)c2C)no1 (stereo not given)	774
O=C(Nc1ccc2c(c1)OCCO2)c1ccc(-c2ccsc2)nc1	864
Cc1ccc(S(=O)(=O)[C@H]2CS(=O)(=O)C[C@@H]2N2CCN(Cc3ccccc3)CC2)cc1	651
CC(NC(=O)c1ccc2nc(-c3ccccc3)cn2c1)c1ccccn1 (stereo not given)	572
Cc1[nH]c(C(=O)N2CCC(CC(=O)NCCC(C)C)CC2)c(C)c1C	813
Cc1c(CN2CC3(CCCCC3)CC2COc2ccncc2)cnn1C (stereo not given)	565
O=S(=O)(Cc1ccccc1Cl)N1CCC(CN2CCCCCC2)CC1	675
Cc1ccc(-c2noc(-c3nn(-c4ccc(C)cc4)ccc3=O)n2)cc1	1010
Cc1cc(S(=O)(=O)N2CC(c3nc(-c4ncccn4)no3)C2)c(Cl)cc1Cl	834
CC(NC(=O)c1ccccc1)c1nc(-c2cccc(-c3ccnn3C)c2)no1 (stereo not given)	840
COCCCNC(=O)c1ccc(-c2nc(CSc3ccccc3)c(C)o2)cc1	934
Clc1ccc(-c2nnc(-c3cccnc3N3CCN(c4ccccn4)CC3)o2)cc1	710
COCCN1C(=O)C(CC(=O)NCCCn2cccn2)=C2CCCCC21 (stereo not given)	634
COC(=O)N1CCC(c2ccc(OC)cc2)C1 (stereo not given)	758
C=CCn1c(=O)c2ccccc2n(Cc2nc(-c3ccc(C)c(C)c3)no2)c1=O	1140
COC(=O)NCc1nnnn1-c1ccc(OC)cc1	616
COc1ccc(CCC(=O)c2c(O)cc(O[C@@H]3O[C@H](CO)[C@@H](O)[C@H](O)[C@H]3O[C@@H]3O[C@@H](C)[C@H](O)[C@@H](O)[C@H]3O)cc2O)cc1O	654
